The numbers were not newly measured in patent US20070122363A1, “CORPOREAL DELIVERY OF CAROTENOIDS” (priority 2005, published 2007), which cites them from elsewhere.

For the series the following is noted: 50 mg daily, about 22,000 male physicians, versus placebo.

On to `CC1=C(/C=C/C(C)=C/C=C/C(C)=C/C=C/C=C(C)/C=C/C=C(C)/C=C/C2=C(C)CCCC2(C)C)C(C)(C)CCC1` [beta-carotene, beta, beta-carotene], for which the adverse health effects entry is recorded as “no adverse health effects”.
